Counter-ions that a name gives are not always drawn.
Test system: male rabbits (New Zealand White)
Assay: Ocular tolerability (Draize) after repeated instillation
Type: in vivo, rabbit
Settings: for Conjunctiva Lachrymation / Conjunctiva Reddening / Conjunctiva Swelling / Cornea Area of the cornea affected by opacity / Cornea Opacity / Iris: Draize score; for Conjunctiva Lachrymation / Conjunctiva Reddening / Conjunctiva Swelling / Cornea Area of the cornea affected by opacity / Cornea Opacity / Iris / Total Score: rabbit eye, 0.1 ml aqueous solution (corresponding to 1.79% by weight of ibopamine, pH 7.0) three times a day for fifteen days; for local tolerability: compared with the hydrochloride, statement in words; for Total Score: sum of Draize scores
Experimental: Two aqueous solutions were used.
The first contained 2% by weight of ibopamine hydrochloride (corresponding to 1.79% by weight of ibopamine) buffered to pH 7.0.
The second contained 2.46% by weight of ibopamine maleate (corresponding to 1.79% by weight of ibopamine) buffered to pH 7.0.
12 male rabbits (New Zealand White) with an average weight of 2 kg and an average age of ten months were used, divided into two groups of six rabbits each. The first group was treated with 0.1 ml of the first test solution three times a day for fifteen days. The second group was treated with 0.1 ml of the second test solution three times a day for fifteen days.
The tolerability was evaluated according to J. Draize et al., Pharmacol. Exp. Ther., 83, 377-390 (1944).

Compound | Conjunctiva Lachrymation | Conjunctiva Reddening | Conjunctiva Swelling | Cornea Area of the cornea affected by opacity | Cornea Opacity | Iris | local tolerability (listed as ibopamine maleate) | local tolerability (listed as maleate) | Total Score
ibopamine maleate (1:1) | 1 | 1 | 0 | 1 | 0 | 0 | better local tolerability | better local tolerability than the hydrochloride | 3
CNCCc1ccc(OC(=O)C(C)C)c(OC(=O)C(C)C)c1 [Ibopamine hydrochloride, ibopamine hydrochloride, reference compound] | 2 | 1 | 1 | 2 | 1 | 1 | – | – | 8
